The numbers were not newly measured in EP4060021A1, “MIMETIC MICROBIOLOGICAL CULTURE MEDIUM AND USES THEREOF” (BIOFILM PHARMA, priority 2021, dated 2022), which cites them from elsewhere.

Read-outs that look alike come from different tables or passages of the source.

One data set has as its system souche de S. aureus. As to conditions: modèle de sepsis, souris infectée par S. aureus, traitées; cited from earlier work.
For another data set, the system named is S. aureus. As to conditions: coculture S. aureus avec P. aeruginosa dans du milieu Lubbock; cited from earlier work.
Another data set has as its system P. aeruginosa. As to conditions: coculture S. aureus avec P. aeruginosa dans du milieu Lubbock; cited from earlier work.
Data set [1] relates to souches de S. aureus issues de plaies. As to conditions: cited from earlier work.

Consider `CC(=O)OCC1=C(C(=O)O)N2C(=O)[C@@H](NC(=O)Cc3cccs3)[C@H]2SC1` [cefalotine], for which the survie des souris entry in the data set on souche de S. aureus is listed as “ont survécu”. Regarding `CO/N=C(\C(=O)N[C@@H]1C(=O)N2C(C(=O)O)=C(CSc3nc(=O)c(=O)[nH]n3C)CS[C@H]12)c1csc(N)n1` [ceftriaxone], the survie des souris result in the data set on souche de S. aureus is “ont survécu”. Turning to gentamicine, the résistance en coculture entry is “résistance partielle” in the data set with S. aureus and “ce qui n'est pas le cas” with P. aeruginosa. `CC[C@H]1OC(=O)[C@H](C)[C@@H](O[C@H]2C[C@@](C)(OC)[C@@H](O)[C@H](C)O2)[C@H](C)[C@@H](O[C@@H]2O[C@H](C)C[C@H](N(C)C)[C@H]2O)[C@](C)(O)C[C@@H](C)C(=O)[C@H](C)[C@@H](O)[C@]1(C)O` [érythromycine]: the survie des souris result in the data set with souche de S. aureus was “ont survécu”.

Take `CCCCCCCCCC(=O)N[C@@H](Cc1c[nH]c2ccccc12)C(=O)N[C@@H](CC(N)=O)C(=O)N[C@@H](CC(=O)O)C(=O)N[C@@H]1C(=O)NCC(=O)N[C@@H](CCCN)C(=O)N[C@@H](CC(=O)O)C(=O)N[C@H](C)C(=O)N[C@@H](CC(=O)O)C(=O)NCC(=O)N[C@H](CO)C(=O)N[C@@H]([C@H](C)CC(=O)O)C(=O)N[C@@H](CC(=O)c2ccccc2N)C(=O)O[C@@H]1C` (stereo in doubt) [daptomycine]: the “sensibilité des souches de S. aureus” value in data set [1] (milieu DMEM) is “plus sensibles”; in data set [1] (milieux MLM ou Lacks), “plus résistantes”.
